From patent publication US20110311591A1, “Antimicrobial Coating” (SHEFFIELD HALLAM UNIVERSITY, priority 2008, published 2011)

What was measured:
Type in all cases: cell-based
[1] = system: Escherichia coli (W3110, k 12 mutant); assay: Growth on agar/gentamicin plate (resistance check); details: 50 μg per ml
Protocol: (§1) Each of the bacterium where grown on a nutrient agar plate and an agar/gentamicin plate at a concentration of 50 μg per ml. This ensured the bacterial strains used where not resistant to gentamicin. One colony from the bacteria agar plate was used to inoculate a sterilized L-broth of 1% tryptone, 0.5% yeast extract, 0.5% NaCl, 0.2% glucose and left over night in a shaking incubator at 37° C.

Staphylococcus aureus = assay: Growth on agar/gentamicin plate (resistance check); details: 50 μg per ml
Protocol: as §1

[2] = system: coagulase negative Staphylococcus epidermis; assay: Growth on agar/gentamicin plate (resistance check); details: 50 μg per ml
Protocol: as §1

bacteria = assay: Viable count on high temperature (80° C.) dried coating; details: coat dried at 80° C.
Protocol: The substrate was a standard glass microscope slide sterilized in an autoclave. Three different coatings were tested i) a pure sol-gel coating was used for a control, ii) a 5 mg/ml gentamicin solution mixed with sol-gel to form a 50 μg/ml coating (50 ppm) and a iii) 12.5 mg/ml concentration of gentamicin was made from gentamicin sulphate dissolved directly in the sol-gel to provide a 1.25% gentamicin sol-gel coating. Each coating was applied over the microscope slide using 200 μl of coating per plate, covered in one single coat and left for 24 hrs at room temperature to allow the coat to cure. Four plates were dried at 80° C. for 1 hr achieving a harder coat to determine if the gentamicin coat was still active after high temperature treatment.
To infect the plates with bacteria, a “sloppy agar” was made up from 0.7 g of nutrient agar dissolved in 100 ml of Phosphate buffer saline (PBS) and autoclaved forming a jelly like consistency. After melting, 5 ml of a inoculate L-broth was pipetted in to 100 ml of sloppy agar and mixed with 500 μl of this inoculated agar to be pipetted on to a coated plate forming a drop sitting on top of the coat. The plate was then laid flat into a Petri dish which was then placed in to a sealed, airtight, container with damp tissue paper to keep the sloppy agar in a moist environment to prevent drying out. […]

gentamicin
susceptibility to gentamicin [1]: susceptible
susceptibility to gentamicin (Staphylococcus aureus): susceptible
susceptibility to gentamicin [2]: susceptible
gentamicin activity and release after high temperature drying of the coat (bacteria): still active and released
